From patent publication US20260356819A1, “OXOISOINDOLINYL-SUBSTITUTED […] DERIVATIVE AND USE THEREOF” (GLUETACS THERAPEUTICS (SHANGHAI) CO., LTD., priority 2023, published 2026)

Legend:
IKZF1 = target: T1, IKZF1 (Homo sapiens, UniProt Q13422+Q96SW2); experiment: Western blot degradation of IKZF1 in hPBMCs (24 h); format: cell-based; conditions: compounds at 50 nM and 500 nM
T1 construct: The supernatant was aspirated as the extracted total cell protein; endogenous in cells; host or cells: human peripheral blood mononuclear cells (hPBMCs)
Summary of the method: (§1)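 PBMC Western blot, 24 h treatment; test levels 50 nM and 500 nM. Band density ÷ internal control, normalised → % remaining; degradation (%) = 1 − remaining.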

IKZF2 = target: T2, IKZF2 (Homo sapiens, UniProt Q96SW2+Q9UKS7); experiment: Western blot degradation of IKZF2 in hPBMCs (24 h); format: cell-based; conditions: compounds at 50 nM and 500 nM
T2 construct: The supernatant was aspirated as the extracted total cell protein; endogenous in cells; host or cells: human peripheral blood mononuclear cells (hPBMCs)
Summary of the method: as §1

WEE1 = target: T3, WEE1 (Homo sapiens, UniProt P30291+Q96SW2); experiment: Western blot degradation of WEE1 in hPBMCs (24 h); format: cell-based; conditions: compounds at 50 nM and 500 nM
T3 construct: The supernatant was aspirated as the extracted total cell protein; endogenous in cells; host or cells: human peripheral blood mononuclear cells (hPBMCs)
Summary of the method: as §1

MM.1S cells = experiment: Inhibition of proliferation of multiple myeloma cells MM.1S (cell viability assay, 96 h); format: cell-based, human; conditions: read-out: inhibitory activity (IC50) against tumor cells proliferation, MM.1S
Protocol: The tumor cells used herein were cultured in a cell culture medium listed in table 2 at 37 °C in an incubator with 5% CO2. Prior to experimentation, all cell lines used were correctly identified by STR profiling, and tested negative for Mycoplasma contamination using a Mycoplasma detection kit through routine screenings.
The IC50 values of the compounds of the present disclosure (including the compounds in Table 1, and Examples 1-498) were determined using the CellTiter-Meiluncell Luminescent Cell Viability Assay Kit from Dalian Meilun Biotech Co., Ltd. The detailed procedure is as follows: Tumor cells were seeded in 96-well cell culture plates at the densities specified in Table 3. On the following day, the test compounds of the present disclosure were subjected to serial dilution. […] Subsequently, 0.5 μL of the test compound dilution was transferred into the 96-well plate containing the cells, with each well containing 100 μL of cell culture medium. […] Into the 96-well plate, the diluted test compounds and corresponding detection reagents were added, resulting in final test compound concentrations of 500 nM and 10 nM, respectively. The experimental procedure is described below using the diluted 2 μM test compound as an example.
0.5 μL of the aforementioned diluted compound of the present disclosure (including the compounds in Table 1, and Examples 1-498) was added to the seeded cells in 100 μL of medium, yielding a final test compound concentration of 10 nM. After the cells were treated with the compounds of the present disclosure for a specified period, the cell viability assay reagent was added to the culture medium according to the kit's instructions to determine cell viability. […] All controls were treated using the same procedure as the compounds of the present disclosure. The growth inhibition curves for the compounds of the present disclosure were plotted using Prism GraphPad software, and the IC50 values were calculated therefrom.

IKZF3 = target: T4, IKZF3 (Homo sapiens, UniProt Q96SW2+Q9UKT9); experiment: Western blot degradation of IKZF3 in hPBMCs (24 h); format: cell-based; conditions: compounds at 50 nM and 500 nM
T4 construct: The supernatant was aspirated as the extracted total cell protein; endogenous in cells; host or cells: human peripheral blood mononuclear cells (hPBMCs)
Summary of the method: as §1

CK1α = target: T5, CK1α (Homo sapiens, UniProt P48729+Q96SW2); experiment: Western blot degradation of CK1α in hPBMCs (24 h); format: cell-based; conditions: compounds at 50 nM and 500 nM
T5 construct: The supernatant was aspirated as the extracted total cell protein; endogenous in cells; host or cells: human peripheral blood mononuclear cells (hPBMCs)
Summary of the method: as §1

GSPT1 = target: T6, GSPT1 (Homo sapiens, UniProt P15170+Q96SW2); experiment: Western blot degradation of GSPT1 in hPBMCs (24 h); format: cell-based; conditions: compounds at 50 nM and 500 nM
T6 construct: The supernatant was aspirated as the extracted total cell protein; endogenous in cells; host or cells: human peripheral blood mononuclear cells (hPBMCs)
Summary of the method: as §1

T2 sequence (Q9UKS7 whole entry): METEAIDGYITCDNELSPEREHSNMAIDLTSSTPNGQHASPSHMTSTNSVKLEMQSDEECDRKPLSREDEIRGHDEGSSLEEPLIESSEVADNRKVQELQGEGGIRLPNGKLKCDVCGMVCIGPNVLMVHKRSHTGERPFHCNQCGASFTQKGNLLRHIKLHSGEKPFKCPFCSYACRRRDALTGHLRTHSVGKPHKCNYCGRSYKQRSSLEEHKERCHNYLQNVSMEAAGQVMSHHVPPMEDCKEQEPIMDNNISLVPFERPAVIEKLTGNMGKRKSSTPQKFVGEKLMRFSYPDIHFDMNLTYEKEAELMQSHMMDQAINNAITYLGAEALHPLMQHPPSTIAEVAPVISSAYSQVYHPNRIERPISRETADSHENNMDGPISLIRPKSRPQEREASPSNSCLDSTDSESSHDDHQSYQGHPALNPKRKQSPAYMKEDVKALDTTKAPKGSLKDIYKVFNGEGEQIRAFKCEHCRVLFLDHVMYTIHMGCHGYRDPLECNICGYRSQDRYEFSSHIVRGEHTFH
T2 sequence (Q96SW2 whole entry): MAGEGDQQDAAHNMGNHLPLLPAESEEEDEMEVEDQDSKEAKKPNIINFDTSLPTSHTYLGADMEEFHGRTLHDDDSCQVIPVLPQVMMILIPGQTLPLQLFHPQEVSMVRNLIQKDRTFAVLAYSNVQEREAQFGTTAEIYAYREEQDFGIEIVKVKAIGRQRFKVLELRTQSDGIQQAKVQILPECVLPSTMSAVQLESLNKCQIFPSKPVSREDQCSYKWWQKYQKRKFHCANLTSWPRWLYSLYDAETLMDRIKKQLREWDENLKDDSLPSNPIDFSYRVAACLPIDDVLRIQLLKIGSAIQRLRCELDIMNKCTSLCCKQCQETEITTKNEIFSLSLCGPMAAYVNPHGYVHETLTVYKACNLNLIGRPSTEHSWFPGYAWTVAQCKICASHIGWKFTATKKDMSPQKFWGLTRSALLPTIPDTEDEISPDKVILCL
T2 sequence (Q16531 whole entry partner): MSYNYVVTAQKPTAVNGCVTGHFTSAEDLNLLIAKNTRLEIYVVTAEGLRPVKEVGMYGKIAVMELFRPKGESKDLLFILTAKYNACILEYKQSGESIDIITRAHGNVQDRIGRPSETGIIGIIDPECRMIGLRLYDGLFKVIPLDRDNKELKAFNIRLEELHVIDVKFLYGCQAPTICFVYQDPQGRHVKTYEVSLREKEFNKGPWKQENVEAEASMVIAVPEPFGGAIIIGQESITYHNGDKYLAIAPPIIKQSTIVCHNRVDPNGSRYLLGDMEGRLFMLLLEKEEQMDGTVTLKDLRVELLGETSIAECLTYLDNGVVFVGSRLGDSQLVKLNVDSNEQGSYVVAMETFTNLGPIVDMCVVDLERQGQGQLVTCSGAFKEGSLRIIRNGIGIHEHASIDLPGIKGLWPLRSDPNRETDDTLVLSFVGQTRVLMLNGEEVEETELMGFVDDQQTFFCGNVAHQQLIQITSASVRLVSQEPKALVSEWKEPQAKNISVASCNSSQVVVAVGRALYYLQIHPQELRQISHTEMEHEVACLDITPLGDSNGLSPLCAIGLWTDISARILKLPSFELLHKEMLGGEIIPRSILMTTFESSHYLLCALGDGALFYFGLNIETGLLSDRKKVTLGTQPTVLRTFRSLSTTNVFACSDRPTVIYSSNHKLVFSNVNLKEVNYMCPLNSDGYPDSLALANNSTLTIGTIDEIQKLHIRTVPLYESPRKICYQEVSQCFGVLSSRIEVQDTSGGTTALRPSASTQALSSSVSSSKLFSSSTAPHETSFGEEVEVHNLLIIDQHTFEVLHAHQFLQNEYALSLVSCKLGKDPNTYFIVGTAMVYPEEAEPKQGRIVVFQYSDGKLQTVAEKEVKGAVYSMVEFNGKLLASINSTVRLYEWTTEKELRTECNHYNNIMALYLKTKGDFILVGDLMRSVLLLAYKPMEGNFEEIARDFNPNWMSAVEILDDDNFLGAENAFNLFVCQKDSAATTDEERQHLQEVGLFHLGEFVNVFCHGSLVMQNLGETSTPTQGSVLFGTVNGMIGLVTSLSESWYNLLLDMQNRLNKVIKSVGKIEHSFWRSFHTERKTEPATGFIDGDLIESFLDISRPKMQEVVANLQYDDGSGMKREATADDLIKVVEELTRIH
T3 sequence (P30291 whole entry): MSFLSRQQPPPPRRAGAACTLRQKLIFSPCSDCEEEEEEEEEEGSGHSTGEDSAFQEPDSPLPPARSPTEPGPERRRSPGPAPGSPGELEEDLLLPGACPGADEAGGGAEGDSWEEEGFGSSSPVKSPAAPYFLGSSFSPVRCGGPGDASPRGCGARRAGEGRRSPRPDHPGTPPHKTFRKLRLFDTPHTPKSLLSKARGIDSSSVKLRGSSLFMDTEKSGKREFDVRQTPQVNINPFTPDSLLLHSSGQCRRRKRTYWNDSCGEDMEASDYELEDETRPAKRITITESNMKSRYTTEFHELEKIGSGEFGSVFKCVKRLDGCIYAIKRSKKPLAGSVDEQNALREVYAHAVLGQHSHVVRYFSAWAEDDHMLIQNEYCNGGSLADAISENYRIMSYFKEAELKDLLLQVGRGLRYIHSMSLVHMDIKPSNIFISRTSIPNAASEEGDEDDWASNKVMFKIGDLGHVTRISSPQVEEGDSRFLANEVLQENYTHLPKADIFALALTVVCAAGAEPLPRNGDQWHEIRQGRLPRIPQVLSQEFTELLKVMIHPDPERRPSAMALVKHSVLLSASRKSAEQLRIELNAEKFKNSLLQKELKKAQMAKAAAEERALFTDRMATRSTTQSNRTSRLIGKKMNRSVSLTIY
T3 sequence (Q96SW2 whole entry): as the sequence (Q96SW2 whole entry) above
T3 sequence (Q16531 whole entry partner): as the sequence (Q16531 whole entry partner) above
T1 sequence (Q13422 whole entry): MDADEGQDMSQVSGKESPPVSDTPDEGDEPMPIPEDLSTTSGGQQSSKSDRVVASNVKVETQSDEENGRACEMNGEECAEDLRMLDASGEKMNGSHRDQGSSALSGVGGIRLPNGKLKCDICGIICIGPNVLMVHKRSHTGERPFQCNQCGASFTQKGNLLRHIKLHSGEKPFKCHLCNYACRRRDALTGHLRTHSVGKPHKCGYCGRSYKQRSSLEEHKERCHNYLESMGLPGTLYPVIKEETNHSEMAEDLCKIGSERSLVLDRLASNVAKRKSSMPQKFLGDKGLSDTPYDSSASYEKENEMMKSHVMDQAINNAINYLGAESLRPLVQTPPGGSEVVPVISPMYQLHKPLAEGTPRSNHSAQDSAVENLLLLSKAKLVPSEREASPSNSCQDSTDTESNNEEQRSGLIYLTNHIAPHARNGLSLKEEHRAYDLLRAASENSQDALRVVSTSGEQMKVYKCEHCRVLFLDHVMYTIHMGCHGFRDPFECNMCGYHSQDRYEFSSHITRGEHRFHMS
T1 sequence (Q96SW2 whole entry): as the sequence (Q96SW2 whole entry) above
T1 sequence (Q16531 whole entry partner): as the sequence (Q16531 whole entry partner) above
T4 sequence (Q9UKT9 whole entry): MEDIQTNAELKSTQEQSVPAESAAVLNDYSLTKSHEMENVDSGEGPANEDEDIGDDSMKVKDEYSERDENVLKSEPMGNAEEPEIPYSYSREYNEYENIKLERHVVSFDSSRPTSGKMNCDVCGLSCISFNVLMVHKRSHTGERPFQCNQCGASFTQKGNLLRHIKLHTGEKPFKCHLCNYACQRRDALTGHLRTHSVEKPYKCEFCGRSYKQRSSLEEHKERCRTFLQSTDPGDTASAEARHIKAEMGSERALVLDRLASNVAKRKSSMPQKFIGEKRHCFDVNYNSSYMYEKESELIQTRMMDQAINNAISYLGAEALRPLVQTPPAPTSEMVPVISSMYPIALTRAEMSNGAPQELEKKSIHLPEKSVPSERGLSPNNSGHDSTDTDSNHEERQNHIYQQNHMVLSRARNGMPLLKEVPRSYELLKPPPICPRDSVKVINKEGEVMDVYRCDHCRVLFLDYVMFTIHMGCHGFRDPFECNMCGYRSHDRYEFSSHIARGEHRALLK
T4 sequence (Q96SW2 whole entry): as the sequence (Q96SW2 whole entry) above
T4 sequence (Q16531 whole entry partner): as the sequence (Q16531 whole entry partner) above
T6 sequence (P15170 whole entry): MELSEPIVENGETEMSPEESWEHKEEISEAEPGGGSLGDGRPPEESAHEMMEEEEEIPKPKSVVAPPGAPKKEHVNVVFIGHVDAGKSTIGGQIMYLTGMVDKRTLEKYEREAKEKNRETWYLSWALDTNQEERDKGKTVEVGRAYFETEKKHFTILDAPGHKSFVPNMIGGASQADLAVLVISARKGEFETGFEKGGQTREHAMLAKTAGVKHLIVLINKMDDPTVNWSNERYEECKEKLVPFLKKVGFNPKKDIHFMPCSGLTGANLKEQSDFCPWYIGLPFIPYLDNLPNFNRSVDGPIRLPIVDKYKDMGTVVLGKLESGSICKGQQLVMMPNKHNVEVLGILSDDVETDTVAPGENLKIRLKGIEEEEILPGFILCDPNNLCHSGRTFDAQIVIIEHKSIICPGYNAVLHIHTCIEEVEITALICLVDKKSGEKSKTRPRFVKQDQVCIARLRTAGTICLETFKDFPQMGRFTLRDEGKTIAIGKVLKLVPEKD
T6 sequence (Q96SW2 whole entry): as the sequence (Q96SW2 whole entry) above
T6 sequence (Q16531 whole entry partner): as the sequence (Q16531 whole entry partner) above

Row | Structure (SMILES) | IKZF1 substrate protein remaining % (IKZF1) | IKZF2 substrate protein remaining % (IKZF2) | WEE1 substrate protein remaining % (WEE1) | IC50 (MM.1S cells) | IKZF3 substrate protein remaining % (IKZF3) | CK1α substrate protein remaining % (CK1α) | GSPT1 substrate protein remaining % (GSPT1)
1 | Cc1ccc(Sc2ccccc2N2CCN(Cc3ccc4c(c3)CN(N3CCC(=O)NC3=O)C4=O)CC2)c(C)c1 [GT-04867, 1-(5-((4-(2-((2,4-dimethylphenyl)thio)phenyl)piperazin-1-yl)methyl)-1-oxoisoindolin-2-yl)dihydropyrimidine-2,4(1H,3H)-dione] | A (0% ≤ substrate protein remaining % ≤80%) | B (80%< substrate protein remaining % ≤100%) | B (80%< substrate protein remaining % ≤100%) | 500 to 1000 nM | B (80%< substrate protein remaining % ≤100%) | B (80%< substrate protein remaining % ≤100%) | A (0% ≤ substrate protein remaining % ≤80%)
2 | O=C1CCN(N2Cc3cc(CN4CC=C(c5ccoc5)CC4)ccc3C2=O)C(=O)N1 [GT-04875, 1-(5-((4-(furan-3-yl)-3,6-dihydropyridin-1(2H)-yl)methyl)-1-oxoisoindolin-2-yl)dihydropyrimidine-2,4(1H,3H)-dione] | B (80%< substrate protein remaining % ≤100%) | B (80%< substrate protein remaining % ≤100%) | A (0% ≤ substrate protein remaining % ≤80%) | 300 to 500 nM | B (80%< substrate protein remaining % ≤100%) | B (80%< substrate protein remaining % ≤100%) | A (0% ≤ substrate protein remaining % ≤80%)
3 | N#Cc1ccc(N2CCN(Cc3ccc(COc4cccc5c4CN(N4CCC(=O)NC4=O)C5=O)cc3)CC2)c(F)c1 [GT-06132, 4-(4-(4-(((2-(2,4-dioxotetrahydropyrimidin-1(2H)-yl)-1-oxoisoindolin-4-yl)oxy)methyl)benzyl)piperazin-1-yl)-3-fluorobenzonitrile] |  |  |  | 100 to 300 nM |  |  | 
4 | O=C1CCN(N2C(=O)c3ccc(CN4CCN(c5nc(Cl)nc6c5SCC6)CC4)cc3C2=O)C(=O)N1 [GT-08448, 5-((4-(2-chloro-6,7-dihydrothieno[3,2-d]pyrimidin-4-yl)piperazin-1-yl)methyl)-2-(2,4-dioxotetrahydropyrimidin-1(2H)-yl)isoindoline-1,3-dione] | B (80%< substrate protein remaining % ≤100%) | B (80%< substrate protein remaining % ≤100%) | B (80%< substrate protein remaining % ≤100%) |  | B (80%< substrate protein remaining % ≤100%) | B (80%< substrate protein remaining % ≤100%) | A (0% ≤ substrate protein remaining % ≤80%)
5 | O=C1CCN(N2C(=O)c3ccc(CN4CCN(c5nc(N6CCOCC6)nc6c5SCC6)CC4)cc3C2=O)C(=O)N1 [GT-08450, 2-(2,4-dioxotetrahydropyrimidin-1(2H)-yl)-5-((4-(2-morpholino-6,7-dihydrothieno[3,2-d]pyrimidin-4-yl)piperazin-1-yl)methyl)isoindoline-1,3-dione] | B (80%< substrate protein remaining % ≤100%) | B (80%< substrate protein remaining % ≤100%) | B (80%< substrate protein remaining % ≤100%) |  | B (80%< substrate protein remaining % ≤100%) | B (80%< substrate protein remaining % ≤100%) | A (0% ≤ substrate protein remaining % ≤80%)
6 | O=C1CCN(N2C(=O)c3ccc(CN4CCN(c5nc6c(c(N7CCOCC7)n5)SCC6)CC4)cc3C2=O)C(=O)N1 [GT-08451, 2-(2,4-dioxotetrahydropyrimidin-1(2H)-yl)-5-((4-(4-morpholino-6,7-dihydrothieno[3,2-d]pyrimidin-2-yl)piperazin-1-yl)methyl)isoindoline-1,3-dione] | B (80%< substrate protein remaining % ≤100%) | B (80%< substrate protein remaining % ≤100%) | B (80%< substrate protein remaining % ≤100%) |  | A (0% ≤ substrate protein remaining % ≤80%) | A (0% ≤ substrate protein remaining % ≤80%) | B (80%< substrate protein remaining % ≤100%)
7 | O=C1CCN(N2C(=O)c3ccc(CN4CCN(c5ncnc6ccsc56)CC4)cc3C2=O)C(=O)N1 [GT-08452, 2-(2,4-dioxotetrahydropyrimidin-1(2H)-yl)-5-((4-(thieno[3,2-d]pyrimidin-4-yl)piperazin-1-yl)methyl)isoindoline-1,3-dione] | A (0% ≤ substrate protein remaining % ≤80%) | B (80%< substrate protein remaining % ≤100%) | A (0% ≤ substrate protein remaining % ≤80%) |  | A (0% ≤ substrate protein remaining % ≤80%) | A (0% ≤ substrate protein remaining % ≤80%) | B (80%< substrate protein remaining % ≤100%)
8 | O=C1CCN(N2C(=O)c3ccc(CN4CCN(c5nc(Cl)nc6ccsc56)CC4)cc3C2=O)C(=O)N1 [GT-08453, 5-((4-(2-chlorothieno[3,2-d]pyrimidin-4-yl)piperazin-1-yl)methyl)-2-(2,4-dioxotetrahydropyrimidin-1(2H)-yl)isoindoline-1,3-dione] | A (0% ≤ substrate protein remaining % ≤80%) | B (80%< substrate protein remaining % ≤100%) | B (80%< substrate protein remaining % ≤100%) |  | A (0% ≤ substrate protein remaining % ≤80%) | A (0% ≤ substrate protein remaining % ≤80%) | A (0% ≤ substrate protein remaining % ≤80%)
9 | O=C1CCN(N2C(=O)c3ccc(CN4CCN(c5nc(N6CCOCC6)nc6ccsc56)CC4)cc3C2=O)C(=O)N1 [GT-08455, 2-(2,4-dioxotetrahydropyrimidin-1(2H)-yl)-5-((4-(2-morpholinothieno[3,2-d]pyrimidin-4-yl)piperazin-1-yl)methyl)isoindoline-1,3-dione] | B (80%< substrate protein remaining % ≤100%) | B (80%< substrate protein remaining % ≤100%) | B (80%< substrate protein remaining % ≤100%) |  | A (0% ≤ substrate protein remaining % ≤80%) | A (0% ≤ substrate protein remaining % ≤80%) | A (0% ≤ substrate protein remaining % ≤80%)
10 | Cc1nc(C2=CCN(Cc3ccc4c(c3)C(=O)N(N3CCC(=O)NC3=O)C4=O)CC2)c2c(-c3ccccc3)csc2n1 [GT-08484, 2-(2,4-dioxotetrahydropyrimidin-1(2H)-yl)-5-((4-(2-methyl-5-phenylthieno[2,3-d]pyrimidin-4-yl)-3,6-dihydropyridin-1(2H)-yl)methyl)isoindoline-1,3-dione] | A (0% ≤ substrate protein remaining % ≤80%) | A (0% ≤ substrate protein remaining % ≤80%) | A (0% ≤ substrate protein remaining % ≤80%) |  | A (0% ≤ substrate protein remaining % ≤80%) | A (0% ≤ substrate protein remaining % ≤80%) | A (0% ≤ substrate protein remaining % ≤80%)
11 | O=C1CCN(N2Cc3cc(CN4CCN(c5nc(N6CCNCC6)c6sccc6n5)CC4)ccc3C2=O)C(=O)N1 [GT-08949, 1-(1-oxo-5-((4-(4-(piperazin-1-yl)thieno[3,2-d]pyrimidin-2-yl)piperazin-1-yl)methyl)isoindolin-2-yl)dihydropyrimidine-2,4(1H,3H)-dione] | B (80%< substrate protein remaining % ≤100%) | B (80%< substrate protein remaining % ≤100%) | B (80%< substrate protein remaining % ≤100%) |  | B (80%< substrate protein remaining % ≤100%) | B (80%< substrate protein remaining % ≤100%) | A (0% ≤ substrate protein remaining % ≤80%)
